Where no end group is shown, it is not given here. The star is where a group is joined. Myristoyl = CCCCCCCCCCCCCC(=O)*
Tests used:
S2+ InsP3R-1 [1] = assay: Potentiation of CCh-induced Ca2+ release after PKA activation (forskolin), S2+ InsP3R-1 constructs in DT-40 3ko cells; assay type: cell-based, rat; settings: 30 min pretreatment, cells expressing S2+ InsP3R-1
Experimental: DT-40 cells lacking all three InsP3 receptor subtypes DT-40 3ko were transfected using electroporation, 350 V and 950 μF. 2×10^7 cells were co-transfected with 25 μg of the InsP3R cDNA, 25 μg of the muscarinic type 3 (M3) receptor, and 4 μg of the red fluorescent protein plasmid pHcRed1-N1. Cells were incubated with DNA in 500 μL of Optimem media on ice for 10 minutes. The cell/DNA mixture was electroporated, incubated on ice for 30 minutes, brought up to 5 ml with Optimem and placed in a 5% C02 incubator at 39° C. for 5 hours. The cells were then centrifuged and resuspended in 12 ml of complete RPMI media. Transfection efficiency was typically ˜20%. Experiments were performed within 32 hours of transfection.
(§1) Transfected DT-40 3ko cells were washed once in a HEPES-buffered physiological saline solution (HEPES-PSS) containing (in mM) 5.5 glucose, 137 NaCl, 0.56 MgCl2, 4.7 KCl, 1 Na2HPO4, 10 HEPES (pH 7.4), 1.2 CaCl2 and 1% w/v Bovine Serum Albumin. Cells were then resuspended in BSA HEPES-PSS with 1 μM Fura-2 (AM), placed on a 15 mm glass coverslip in a low volume perfusion chamber (Warner Instruments) and allowed to adhere for 30 minutes at room temperature. Cells were perfused continually for 10 minutes with HEPES-PSS before experimentation to allow Fura-2 de-esterification. A field of cells for each experiment was chosen that contained a wide range of transfection efficiency based upon the intensity of red fluorescence emitted when excited at 560 nm. [Ca^2+]i imaging was performed essentially as previously described using an inverted epifluorescence Nikon microscope with a 40× oil immersion objective lens (numerical aperture, 1.3). Cells were excited alternately with light at 340 and 380 nm (±10 mn bandpass filters, Chroma) using a monochrometer (TILL Photonics). Fluorescence images were captured and digitized with a digital camera driven by TILL Photonics software. Images were captured every 2 seconds with an exposure of 35 ms and no binning. 340/380 ratio images were calculated online and stored immediately to hard disk.
(§2) The effects of treatment were determined by normalizing the peak change in fluorescence ratio by stimulation following forskolin or 8-Br cGMP exposure to that of stimulation in control HEPES-PSS. Thus, pooled data represents a normalized fold increase over control for the treated trial. Two tailed heteroscedastic t-tests with P values<0.05 were considered to have statistical significance.
Experiments were performed in DT-40 3ko cells transfected with S2^+ InsP3R-1. Since there are no reports of Gαq coupled receptors expressed in DT-40 cells, initial experiments were performed eliciting [Ca^2+]i changes by stimulating the endogenous B cell receptor with α-IgM antibody. […] Thus, in all further experiments, DT-40 3ko cells were co-transfected with the M3 receptor, and HcRed to facilitate identification of transfected cells (inset FIG. 1). Stimulation of M3 receptors with the muscarinic agonist carbachol (CCh), provided a convenient means of stimulating [Ca^2+]i changes, presumably through Gαq-induced activation of phospholipase C and production of InsP3. […] The potentiation was most marked when threshold elevations in [Ca^2+]i were evoked by the initial exposure to CCh and therefore only cells in which the initial CCh treatment evoked a Δ 340/380 ratio of<0.2 ratio units were included for analysis. […] [Ca^2+]i changes were never evoked by CCh treatment in cells transfected with only M3 cDNA in the absence of InsP3R or likewise InsP3R with no M3 cDNA.
The effects of treatment were determined by normalizing the peak change in fluorescence ratio by stimulation following forskolin or 8-Br-cGMP exposure to that of stimulation in control HEPES-PSS. Thus, pooled data represent a normalized fold increase over control for the treated trial. In all cases where statistical significance is indicated, two-tailed heteroscedastic t tests were performed. […]

S2+ InsP3R-1 [2] = assay: Potentiation of CCh-induced Ca2+ release after PKG activation (8-Br cGMP), S2+ InsP3R-1 constructs in DT-40 3ko cells; assay type: cell-based, rat; settings: 30 min pretreatment, cells expressing S2+ InsP3R-1
Experimental: as §1, §2
Similar experiments were performed to assess the effects on Ca^2+ release of phosphorylating InsP3R-1 with PKG. Cells transfected with S2^+ InsP3R-1 together with M3 receptor and HcRed were stimulated with low, threshold concentrations of CCh (25-50 nM) followed by a 10 min treatment with 10 μM 8-Br cGMP, a specific activator of PKG [48]. […] In a similar fashion to PKA activation, this was manifested as an increase in the CCh-induced initial peak (FIG. 4A and pooled data FIG. 4E).
The effects of treatment were determined by normalizing the peak change in fluorescence ratio by stimulation following forskolin or 8-Br-cGMP exposure to that of stimulation in control HEPES-PSS. Thus, pooled data represent a normalized fold increase over control for the treated trial. In all cases where statistical significance is indicated, two-tailed heteroscedastic t tests were performed. P values<0.05 were considered to indicate statistical significance and are denoted by an asterisk in the figures.
Despite these differences, experiments were performed to define further the phosphorylation sites important for regulation of Ca^2+ release by PKG. […] In contrast, in cells expressing S2+SE no effect on CCh-induced Ca^2+ release following activation of PKG was observed (FIG. 23C and pooled data in FIG. 23D).

InsP3R-III = assay: PKA stimulation of Ca2+ signals in DT-40 3ko cells transfected with rat InsP3R-III; assay type: cell-based

Substance	effect of PKI on forskolin-induced enhancement of Ca^2+ release (S2+ InsP3R-1 [1])	effect of PKI on forskolin-induced enhancement of Ca^2+ release (S2+ InsP3R-1 [1]; listed as myristolyated PKI)	effect of PKI on 8-Br cGMP-induced enhancement of Ca^2+ release (S2+ InsP3R-1 [2])	effect of PKI on 8-Br cGMP-induced enhancement of Ca^2+ release (S2+ InsP3R-1 [2]; listed as myristolyated PKI)	effect of stimulating PKA on Ca^2+ signals (InsP3R-III)
PKI: cell-permeable PKA inhibitor, myristolyated PKI (Myristoyl-SGRTGRRNA; UniProt P61925 14-22, looked up, fragment) [reference compound]	completely abolishes	completely abolished	does not affect	did not alter	–
rat InsP3R-III: rat type 3 InsP3 receptor transfected into DT-40 3ko cells	–	–	–	–	inhibited
